In ChEMBL document CHEMBL1142584, “Insect antifeedants from Croton jatrophoides: structures of zumketol, zumsenin, and zumsenol” (2005) one finds Activity data, which are given here for 1 compound.

Structures are written as SMILES.

Format in all cases: functional
The subject of assay [1] is Pectinophora gossypiella. The assay is described as follows: Antifeedant activity against Pectinophora gossypiella second-instar larvae assessed as 90 % protection after 48 hrs.
Assay [2] relates to Spodoptera frugiperda. The assay is described as follows: Antifeedant activity against Spodoptera frugiperda second-instar larvae assessed as 90 % protection after 48 hrs.
For assay [3], the system named is Pectinophora gossypiella. The assay is described as follows: Antifeedant activity against Pectinophora gossypiella second-instar larvae assessed as 50 % protection after 48 hrs.
Assay [4] relates to Spodoptera frugiperda. The assay is described as follows: Antifeedant activity against Spodoptera frugiperda second-instar larvae assessed as 50 % protection after 48 hrs.

Regarding `CC(=O)O[C@H]1[C@H](OC(C)=O)[C@]2(C)C(=CC[C@H]2c2ccoc2)[C@]2(C)C(=O)C[C@H]3C(C)(C)O[C@H]4C[C@H](O)C(=O)[C@]43[C@@H]12` [ZUMKETOL], the Activity with Pectinophora gossypiella [1] stood at 2 µg/mL; with Spodoptera frugiperda [2], 16 µg/mL; in the assay with Pectinophora gossypiella [3], 0.5 µg/mL; with Spodoptera frugiperda [4], 3 µg/mL.
